The text below walks through data of US9850225B2, “Compounds useful as immunomodulators” (BRISTOL-MYERS SQUIBB COMPANY, priority 2014, dated 2017).

The assay has as its target PD-1/PD-L1 interaction (PD-1-Ig / PD-L1-His) (Homo sapiens (Human), UniProt Q9NZQ7). Kind of assay: PD-1/PD-L1 Homogenous Time-Resolved Fluorescence (HTRF) binding assay. The conditions noted are these: PD-1/PD-L1 HTRF binding assay; value given as range class; read-out: Range or IC50. In short, it runs like this:
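Human PD-L1-His (10 nM final) was pre-incubated with inhibitor for 15 min, then PD-1-Ig (20 nM final) was added for a further 15 min in dPBS with 0.1% BSA and 0.05% Tween-20. Binding was detected by HTRF using Eu-cryptate anti-Ig (1 nM) and APC anti-His (20 nM).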
On the technique in general: In TR-FRET formats the signal depends on donor and acceptor labels being close together.

In general, IC50 refers to the concentration at which inhibition is half-maximal.

Chain of PD-1/PD-L1 interaction (PD-1-Ig / PD-L1-His) (Q9NZQ7 other isoform, or with tags, fused parts or gaps): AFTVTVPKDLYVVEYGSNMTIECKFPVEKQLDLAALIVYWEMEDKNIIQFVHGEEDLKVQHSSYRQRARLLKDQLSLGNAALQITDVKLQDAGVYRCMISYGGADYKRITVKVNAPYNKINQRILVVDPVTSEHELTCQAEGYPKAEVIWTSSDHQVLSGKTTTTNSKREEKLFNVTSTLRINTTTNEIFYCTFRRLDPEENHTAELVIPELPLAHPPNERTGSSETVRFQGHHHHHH

Take `Cc1c(COc2cc(OCc3cccc(C#N)c3)c(CNC(CN(C)C)C(=O)O)cc2Cl)cccc1-c1ccc2c(c1)OCCO2` (centres unmarked) [Example 1172, 2-((5-chloro-2-((3-cyanobenzyl)oxy)-4-((3-(2,3-dihydrobenzo[b][1,4]dioxin-6-yl)-2-methylbenzyl)oxy)benzyl)amino)-3-(dimethylamino)propanoic acid]: the IC50 was 0.6 to 10 nM.

`Cc1c(COc2cc(OCc3cccc(C#N)c3)c(CNC(Cc3cn(C)c4ccccc34)C(=O)O)cc2Cl)cccc1-c1ccc2c(c1)OCCO2` (centres unmarked) [Example 1168, 2-((5-chloro-2-((3-cyanobenzyl)oxy)-4-((3-(2,3-dihydrobenzo[b][1,4]dioxin-6-yl)-2-methylbenzyl)oxy)benzyl)amino)-3-(1-methyl-1H-indol-3-yl)propanoic acid]: the IC50 lay within 100 to 20000 nM. `Cc1c(COc2cc(OCc3cccc(C#N)c3)c(CNC(Cc3c[nH]c4ccc(O)cc34)C(=O)O)cc2Cl)cccc1-c1ccc2c(c1)OCCO2` (centres unmarked) [Example 1167, 2-((5-chloro-2-((3-cyanobenzyl)oxy)-4-((3-(2,3-dihydrobenzo[b][1,4]dioxin-6-yl)-2-methylbenzyl)oxy)benzyl)amino)-3-(5-hydroxy-1H-indol-3-yl)propanoic acid]: the IC50 is 10 to 100 nM.

On to `CC(=O)NCCNCc1ccc(OCc2cccc(-c3ccccc3)c2C)cc1OCc1ccc(C(F)(F)F)cc1` [Example 1052, N-(2-((4-((2-methyl-[1,1′-biphenyl]-3-yl)methoxy)-2-((4-(trifluoromethyl)benzyl)oxy)benzyl)amino)ethyl)acetamide], for which the IC50 was in the range of 100 to 20000 nM. In the case of `COC(=O)Cc1cccc(COc2cc(OCc3cccc(-c4ccccc4)c3C)ccc2CNCCNC(C)=O)c1` [Example 1101, methyl 2-(3-((2-(((2-acetamidoethyl)amino)methyl)-5-((2-methyl-[1,1′-biphenyl]-3-yl)methoxy)phenoxy)methyl)phenyl)acetate], the IC50 was in the range of 100 to 20000 nM. As for `CC(=O)NCCNCc1ccc(OCc2cccc(-c3ccccc3)c2C)cc1OCc1cc(F)cc(OC(F)(F)F)c1` [Example 1106, N-(2-((2-((3-fluoro-5-(trifluoromethoxy)benzyl)oxy)-4-((2-methyl-[1,1′-biphenyl]-3-yl)methoxy)benzyl)amino)ethyl)acetamide], the IC50 is 100 to 20000 nM. The same measure for `Cc1c(COc2cc(OCc3cccc(C#N)c3)c(CNC(CO)(C(=O)O)C(C)C)cc2Cl)cccc1-c1ccc2c(c1)OCCO2` (centres unmarked) [Example 1214, 2-((5-chloro-2-((3-cyanobenzyl)oxy)-4-((3-(2,3-dihydrobenzo[b][1,4]dioxin-6-yl)-2-methylbenzyl)oxy)benzyl)amino)-2-(hydroxymethyl)-3-methylbutanoic acid]: 0.6 to 10 nM. The same measure for `CC(=O)NCCNCc1ccc(OCc2cccc(-c3ccccc3)c2C)cc1OCc1ccc(C(C)=O)cc1` [Example 1040, N-(2-((2-((4-acetylbenzyl)oxy)-4-((2-methyl-[1,1′-biphenyl]-3-yl)methoxy)benzyl)amino)ethyl)acetamide]: 100 to 20000 nM.
